Results as given in US20230085307A1, “PYRIDAZINONE COMPOUND AND HERBICIDE” (NISSAN CHEMICAL CORPORATION, priority 2019, published 2023).

What was measured:
Settings in all cases: foliage application, 320 g/ha, evaluated three weeks after application
southern crabgrass = assay: Test Example 5: herbicidal effect by foliage application, plastic box (Table 20, symbol F); type: in vivo, southern crabgrass (Digitaria ciliaris)
In short: (§1)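 Foliar spray test: emulsion formulation diluted in water to a set application rate, sprayed onto 14-day-old plants raised in diluvial soil at 25° C to 30° C under glass. Both herbicidal effect and crop effect rated visually three weeks later.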

green foxtail = assay: Test Example 5: herbicidal effect by foliage application, plastic box (Table 20, symbol G); type: in vivo, green foxtail (Setaria viridis)
In short: as §1

barnyard grass = assay: Test Example 5: herbicidal effect by foliage application, plastic box (Table 20, symbol H); type: in vivo, barnyard grass (Echinochloa crus-galli)
In short: as §1

wild oat = assay: Test Example 5: herbicidal effect by foliage application, plastic box (Table 20, symbol I); type: in vivo, wild oat (Avena fatua)
In short: as §1

blackgrass = assay: Test Example 5: herbicidal effect by foliage application, plastic box (Table 20, symbol J); type: in vivo, blackgrass (Alopecurus myosuroides)
In short: as §1

Italian ryegrass = assay: Test Example 5: herbicidal effect by foliage application, plastic box (Table 20, symbol K); type: in vivo, Italian ryegrass (Lolium multiflorum)
In short: as §1

windgrass = assay: Test Example 5: herbicidal effect by foliage application, plastic box (Table 20, symbol L); type: in vivo, windgrass (Apera spica-venti)
In short: as §1

velvetleaf = assay: Test Example 5: herbicidal effect by foliage application, plastic box (Table 20, symbol M); type: in vivo, velvetleaf (Abutilon theophrasti)
In short: as §1

redroot pigweed = assay: Test Example 5: herbicidal effect by foliage application, plastic box (Table 20, symbol N); type: in vivo, redroot pigweed (Amaranthus retroflexus)
In short: as §1

lambsquarters = assay: Test Example 5: herbicidal effect by foliage application, plastic box (Table 20, symbol O); type: in vivo, lambsquarters (Chenopodium album)
In short: as §1

chickweed = assay: Test Example 5: herbicidal effect by foliage application, plastic box (Table 20, symbol P); type: in vivo, common chickweed (Stellaria media)
In short: as §1

false cleavers = assay: Test Example 5: herbicidal effect by foliage application, plastic box (Table 20, symbol Q); type: in vivo, false cleavers (Galium spurium)
Source text: [Test Example 5] Herbicidal Effect Test by Foliage Application
Sterilized diluvial soil was placed in a plastic box having a length of 21 cm, a width of 13 cm, and a depth of 7 cm. The seeds of each of southern crabgrass, green foxtail, barnyard grass, wild oat, blackgrass, Italian ryegrass, windgrass, velvetleaf, redroot pigweed, lambsquarters, chickweed, false cleavers, persian speedwell, corn, soybean, rice, wheat, beet, and rapeseed were sowed in a spot-like manner and covered with the soil having a thickness of about 1.5 cm. Thereafter, the plants were grown in a greenhouse at 25° C. to 30° C. After 14-day growth of the plants, the emulsion agent of the compound of the present invention prepared according to Formulation Example 2 was diluted with water so as to achieve a predetermined herbicide amount, and the diluted emulsion agent was uniformly applied to a foliage part with a small-sized spray. Three weeks after the herbicide application, the effect of the herbicide on each plant was evaluated according to the criteria of Test Example 1.

persian speedwell = assay: Test Example 5: herbicidal effect by foliage application, plastic box (Table 20, symbol R); type: in vivo, Persian speedwell (Veronica persica)
In short: as §1

With `COc1cc(F)ccc1-c1sc2ccc(-c3ccc(OC(C)C)cc3)cc2c1-c1c(O)c(C)nn(C)c1=O` [2-167] the “herbicidal effect on F: southern crabgrass (criteria 0-5)” value (southern crabgrass) was 0 (Herbicidal rate of 5% or less (almost no effect)), the “herbicidal effect on G: green foxtail (criteria 0-5)” value (green foxtail) was 0 (Herbicidal rate of 5% or less (almost no effect)) and the “herbicidal effect on H: barnyard grass (criteria 0-5)” value (barnyard grass) was 0 (Herbicidal rate of 5% or less (almost no effect)). For the same compound, the “herbicidal effect on I: wild oat (criteria 0-5)” value (wild oat) was 0 (Herbicidal rate of 5% or less (almost no effect)), the “herbicidal effect on J: blackgrass (criteria 0-5)” value (blackgrass) was 0 (Herbicidal rate of 5% or less (almost no effect)) and the “herbicidal effect on K: Italian ryegrass (criteria 0-5)” value (Italian ryegrass) was 0 (Herbicidal rate of 5% or less (almost no effect)). The “herbicidal effect on L: windgrass (criteria 0-5)” value (windgrass) was 0 (Herbicidal rate of 5% or less (almost no effect)), the “herbicidal effect on M: velvetleaf (criteria 0-5)” value (velvetleaf) was 0 (Herbicidal rate of 5% or less (almost no effect)) and the “herbicidal effect on N: redroot pigweed (criteria 0-5)” value (redroot pigweed) was 3 (Herbicidal rate of 40% or more and less than 70%). For the same compound, the “herbicidal effect on O: lambsquarters (criteria 0-5)” value (lambsquarters) was 0 (Herbicidal rate of 5% or less (almost no effect)), the “herbicidal effect on P: chickweed (criteria 0-5)” value (chickweed) was 0 (Herbicidal rate of 5% or less (almost no effect)) and the “herbicidal effect on Q: false cleavers (criteria 0-5)” value (false cleavers) was 0 (Herbicidal rate of 5% or less (almost no effect)). For the same compound, the “herbicidal effect on R: persian speedwell (criteria 0-5)” value (persian speedwell) was 0 (Herbicidal rate of 5% or less (almost no effect)).
